Assay results published in patent publication US20070128217A1 (priority 2003, published 2007).

Assays:
[1] = tested on: antibodies in sera from SARS patients (sera 1a, 1b, 2, 6, 37, 62, London, SARS-yellow, SARS-green); format: binding, human; set-up: Binding of serum 6 to linear peptides of protein X1 of SARS-CoV Urbani / Binding of serum 37 to linear peptides of protein X1 of SARS-CoV Urbani / Binding of serum 6 to looped/cyclic peptide (PEPSCAN-ELISA) / Binding of serum 37 to looped/cyclic peptide (PEPSCAN-ELISA) / Binding of serum 37 to looped/cyclic peptides of protein X1 of SARS-CoV Urbani / Binding of serum 6 to linear peptides of protein X2 / Binding of serum 37 to linear peptides of protein X2 / Binding of serum 37 to looped/cyclic peptides of protein X2 of SARS-CoV Urbani / Binding of serum 6 to linear peptides of protein M of SARS-CoV Urbani / Binding of serum 37 to linear peptides of protein M of SARS-CoV Urbani / Binding of serum 6 to looped/cyclic peptides of protein M of SARS-CoV Urbani / Binding of serum 37 to looped/cyclic peptides of protein M of SARS-CoV Urbani / Binding of serum 6 to linear peptides of protein X3 of SARS-CoV Urbani / Binding of serum 37 to linear peptides of protein X3 of SARS-CoV Urbani / Binding of serum 37 to looped/cyclic peptides of protein X3 of SARS-CoV Urbani / Binding of serum 6 to linear peptides of protein X4 of SARS-CoV Urbani / Binding of serum 37 to linear peptides of protein X4 of SARS-CoV Urbani / Binding of serum 37 to looped/cyclic peptides of protein X4 of SARS-CoV Urbani / Binding of serum 6 to linear peptides of protein X5 of SARS-CoV Urbani / Binding of serum 37 to linear peptides of protein X5 of SARS-CoV Urbani / Binding of serum 37 to looped/cyclic peptides of protein X5 of SARS-CoV Urbani / Binding of serum 6 to linear peptides of protein N of SARS-CoV Urbani / Binding of serum 37 to linear peptides of protein N of SARS-CoV Urbani / Binding of serum 6 to linear peptide (PEPSCAN-ELISA) / Binding of serum 1a to looped/cyclic peptides of protein N of SARS-CoV Urbani / Binding of serum 1b to looped/cyclic peptides of protein N of SARS-CoV Urbani / Binding of serum 2 to looped/cyclic peptides of protein N of SARS-CoV Urbani / Binding of serum 6 to looped/cyclic peptides of protein N of SARS-CoV Urbani / Binding of serum 37 to looped/cyclic peptides of protein N of SARS-CoV Urbani / Binding of serum 62 to looped/cyclic peptides of protein N of SARS-CoV Urbani / Binding of serum London to looped/cyclic peptides of protein N of SARS-CoV Urbani / Binding of serum SARS-green to looped/cyclic peptides of protein N of SARS-CoV Urbani: unit not given here
[2] = tested on: recombinant human anti-SARS-CoV antibody 03-018; format: binding; set-up: Binding of antibody 03-018 to linear peptides of the N protein of SARS-CoV Urbani / Binding of antibody 03-018 to looped/cyclic peptides of the N protein of SARS-CoV Urbani: unit not given here
[3] = tested on: rabbit serum obtained by immunizing a rabbit with the SARS-CoV strain Frankfurt 1; format: binding; set-up: Binding of a rabbit serum to linear peptides / Binding of a rabbit serum to looped peptides / Rabbit serum linear peptides / Rabbit serum looped peptides / Binding of a rabbit serum to linear peptides of protein N of SARS-CoV Urbani (Rabbit serum linear peptides) / Binding of a rabbit serum to looped/cyclic peptides of protein N of SARS-CoV Urbani (Rabbit serum looped peptides): unit not given here
[4] = tested on: control sera (pooled serum of ten healthy LUMC hospital workers; commercial negative donor pooled serum from the Dutch bloodbank); format: binding, human; set-up: Binding of Control serum LUMC to linear peptides / Binding of Control serum Blood-bank to linear peptides / Binding of Control serum LUMC to looped peptides / Binding of Control Serum Blood-Bank to Looped peptides / Binding of Control serum LUMC to linear peptides of the protein M of SARS-CoV Urbani / Binding of Control serum Blood-bank to linear peptides of the protein M of SARS-CoV Urbani / Binding of Control serum LUMC to looped peptides of the protein M of SARS-CoV Urbani / Binding of Control Serum Blood-Bank to Looped peptides of the protein M of SARS-CoV Urbani: unit not given here

For ASWFTALTQHGKEEL, the “Binding of serum 1a to linear peptides of protein N of SARS-CoV Urbani” value [1] was 0.2, the “Binding of serum 1a to looped/cyclic peptides of protein N of SARS-CoV Urbani” value [1] was 0.2 and the “Binding of serum 1b to linear peptides of protein N of SARS-CoV Urbani” value [1] was 0.1. For the same sequence, the “Binding of serum 1b to looped/cyclic peptides of protein N of SARS-CoV Urbani” value [1] was 0.1, the “Binding of serum 2 to linear peptides of protein N of SARS-CoV Urbani” value [1] was 0.1 and the “Binding of serum 2 to looped/cyclic peptides of protein N of SARS-CoV Urbani” value [1] was 0.2. The “Binding of serum 6 to linear peptides of protein N of SARS-CoV Urbani” value [1] was 0.1, the “Binding of serum 6 to looped/cyclic peptides of protein N of SARS-CoV Urbani” value [1] was 0.1 and the “Binding of serum 37 to linear peptides of protein N of SARS-CoV Urbani” value [1] was 0.9. For the same sequence, the “Binding of serum 37 to looped/cyclic peptides of protein N of SARS-CoV Urbani” value [1] was 0.4, the “Binding of serum 62 to linear peptides of protein N of SARS-CoV Urbani” value [1] was 0.6 and the “Binding of serum 62 to looped/cyclic peptides of protein N of SARS-CoV Urbani” value [1] was 0.3. The “Binding of serum London to linear peptides of protein N of SARS-CoV Urbani” value [1] was 0.5, the “Binding of serum London to looped/cyclic peptides of protein N of SARS-CoV Urbani” value [1] was 0.3 and the “Binding of serum SARS-green to linear peptides of protein N of SARS-CoV Urbani” value [1] was 0.4. The “Binding of serum SARS-green to looped/cyclic peptides of protein N of SARS-CoV Urbani” value [1] was 0.2, the “Binding of serum SARS-yellow to linear peptides of protein N of SARS-CoV Urbani” value [1] was 0.4 and the “Binding of serum SARS-yellow to looped/cyclic peptides of protein N of SARS-CoV Urbani” value [1] was 0.1. The “Binding of antibody 03-018 to linear peptides of the N protein of SARS-CoV Urbani” value [2] was 0.1, the “Binding of antibody 03-018 to looped/cyclic peptides of the N protein of SARS-CoV Urbani” value [2] was 0.2 and the “Binding of a rabbit serum to linear peptides of protein N of SARS-CoV Urbani (Rabbit serum linear peptides)” value (“Binding … (Rabbit serum linear peptides)” below) [3] was 0.1. The “Binding of a rabbit serum to looped/cyclic peptides of protein N of SARS-CoV Urbani (Rabbit serum looped peptides)” value [3] was 0.1, the “Binding of Control Serum Blood-Bank to Looped peptides” value [4] was 0.5 and the “Binding of Control serum Blood-bank to linear peptides” value [4] was 0.7. For the same sequence, the “Binding of Control serum LUMC to linear peptides” value [4] was 0.5 and the “Binding of Control serum LUMC to looped peptides” value [4] was 0.4.
ATEGALNTPKDHIGT was tested, and the “Binding of serum 1a to linear peptides of protein N of SARS-CoV Urbani” value [1] was 0.2, the “Binding of serum 1a to looped/cyclic peptides of protein N of SARS-CoV Urbani” value [1] was 0.3 and the “Binding of serum 1b to linear peptides of protein N of SARS-CoV Urbani” value [1] was 0.1. The “Binding of serum 1b to looped/cyclic peptides of protein N of SARS-CoV Urbani” value [1] was 0.2, the “Binding of serum 2 to linear peptides of protein N of SARS-CoV Urbani” value [1] was 0.3 and the “Binding of serum 2 to looped/cyclic peptides of protein N of SARS-CoV Urbani” value [1] was 0.4. The “Binding of serum 6 to linear peptides of protein N of SARS-CoV Urbani” value [1] was 0.1, the “Binding of serum 6 to looped/cyclic peptides of protein N of SARS-CoV Urbani” value [1] was 0.2 and the “Binding of serum 37 to linear peptides of protein N of SARS-CoV Urbani” value [1] was 0.7. The “Binding of serum 37 to looped/cyclic peptides of protein N of SARS-CoV Urbani” value [1] was 0.4, the “Binding of serum 62 to linear peptides of protein N of SARS-CoV Urbani” value [1] was 0.7 and the “Binding of serum 62 to looped/cyclic peptides of protein N of SARS-CoV Urbani” value [1] was 0.3. For the same sequence, the “Binding of serum London to linear peptides of protein N of SARS-CoV Urbani” value [1] was 0.5, the “Binding of serum London to looped/cyclic peptides of protein N of SARS-CoV Urbani” value [1] was 0.3 and the “Binding of serum SARS-green to linear peptides of protein N of SARS-CoV Urbani” value [1] was 0.4. The “Binding of serum SARS-green to looped/cyclic peptides of protein N of SARS-CoV Urbani” value [1] was 0.3, the “Binding of serum SARS-yellow to linear peptides of protein N of SARS-CoV Urbani” value [1] was 0.6 and the “Binding of serum SARS-yellow to looped/cyclic peptides of protein N of SARS-CoV Urbani” value [1] was 0.2. The “Binding of antibody 03-018 to linear peptides of the N protein of SARS-CoV Urbani” value [2] was 0.1, the “Binding of antibody 03-018 to looped/cyclic peptides of the N protein of SARS-CoV Urbani” value [2] was 0.2 and the “Binding … (Rabbit serum linear peptides)” value [3] was 0.1. The “Binding of a rabbit serum to looped/cyclic peptides of protein N of SARS-CoV Urbani (Rabbit serum looped peptides)” value [3] was 0.1, the “Binding of Control Serum Blood-Bank to Looped peptides” value [4] was 0.5 and the “Binding of Control serum Blood-bank to linear peptides” value [4] was 0.8. For the same sequence, the “Binding of Control serum LUMC to linear peptides” value [4] was 0.7 and the “Binding of Control serum LUMC to looped peptides” value [4] was 0.5.
With ATRRVRGGDGKMKEL the “Binding of serum 1a to linear peptides of protein N of SARS-CoV Urbani” value [1] was 0.3, the “Binding of serum 1a to looped/cyclic peptides of protein N of SARS-CoV Urbani” value [1] was 0.2 and the “Binding of serum 1b to linear peptides of protein N of SARS-CoV Urbani” value [1] was 0.1. For the same sequence, the “Binding of serum 1b to looped/cyclic peptides of protein N of SARS-CoV Urbani” value [1] was 0.1, the “Binding of serum 2 to linear peptides of protein N of SARS-CoV Urbani” value [1] was 0.3 and the “Binding of serum 2 to looped/cyclic peptides of protein N of SARS-CoV Urbani” value [1] was 0.2. The “Binding of serum 6 to linear peptides of protein N of SARS-CoV Urbani” value [1] was 0.3, the “Binding of serum 6 to looped/cyclic peptides of protein N of SARS-CoV Urbani” value [1] was 0.1 and the “Binding of serum 37 to linear peptides of protein N of SARS-CoV Urbani” value [1] was 0.8. For the same sequence, the “Binding of serum 37 to looped/cyclic peptides of protein N of SARS-CoV Urbani” value [1] was 0.4, the “Binding of serum 62 to linear peptides of protein N of SARS-CoV Urbani” value [1] was 0.7 and the “Binding of serum 62 to looped/cyclic peptides of protein N of SARS-CoV Urbani” value [1] was 0.3. For the same sequence, the “Binding of serum London to linear peptides of protein N of SARS-CoV Urbani” value [1] was 0.5, the “Binding of serum London to looped/cyclic peptides of protein N of SARS-CoV Urbani” value [1] was 0.3 and the “Binding of serum SARS-green to linear peptides of protein N of SARS-CoV Urbani” value [1] was 0.3. For the same sequence, the “Binding of serum SARS-green to looped/cyclic peptides of protein N of SARS-CoV Urbani” value [1] was 0.1, the “Binding of serum SARS-yellow to linear peptides of protein N of SARS-CoV Urbani” value [1] was 0.6 and the “Binding of serum SARS-yellow to looped/cyclic peptides of protein N of SARS-CoV Urbani” value [1] was 0.4. The “Binding of antibody 03-018 to linear peptides of the N protein of SARS-CoV Urbani” value [2] was 0.1, the “Binding of antibody 03-018 to looped/cyclic peptides of the N protein of SARS-CoV Urbani” value [2] was 0.2 and the “Binding … (Rabbit serum linear peptides)” value [3] was 0.3. For the same sequence, the “Binding of a rabbit serum to looped/cyclic peptides of protein N of SARS-CoV Urbani (Rabbit serum looped peptides)” value [3] was 0.3, the “Binding of Control Serum Blood-Bank to Looped peptides” value [4] was 0.5 and the “Binding of Control serum Blood-bank to linear peptides” value [4] was 0.7. For the same sequence, the “Binding of Control serum LUMC to linear peptides” value [4] was 0.7 and the “Binding of Control serum LUMC to looped peptides” value [4] was 0.5.
